Source: patent US9695155B2, “Herbicidal substituted pyrimidinyloxy benzene compounds” (E. I. DU PONT DE NEMOURS AND COMPANY, priority 2013, dated 2017)

Experiments:
palmer pigweed = test: Test E postemergence; assay type: in vivo, Amaranthus palmeri; conditions: post-emergence, read-out: Plant response rating, Pigweed, Palmer
Excerpt: Seeds of plant species selected from corn (Zea mays), soybean (Glycine max), velvetleaf (Abutilon theophrasti), lambsquarters (Chenopodium album), wild poinsettia (Euphorbia heterophylla), palmer pigweed (Amaranthus palmeri), waterhemp (common waterhemp, Amaranthus rudis), surinam grass (Brachiaria decumbens), large (Lg) crabgrass (Digitaria sanguinalis), Brazilian crabgrass (Digitaria horizontalis), fall panicum (Panicum dichotomiflorum), giant foxtail (Setaria faberii), green foxtail (Setaria viridis), goosegrass (Eleusine indica), johnsongrass (Sorghum halepense), ragweed (common ragweed, Ambrosia elatior), barnyardgrass (Echinochloa crus-galli), sandbur (southern sandbur, Cenchrus echinatus), arrowleaf sida (Sida rhombifolia), Italian ryegrass (Lolium multiflorum), dayflower (Virginia (VA) dayflower, Commelina virginica), field bindweed (Convolvulus arvensis), morningglory (Ipomoea coccinea), nightshade (eastern black nightshade, Solanum ptycanthum), kochia (Kochia scoparia), yellow nutsedge (Cyperus esculentus), cocklebur (common cocklebur, Xanthium strumarium), smartweed (ladysthumb smartweed, and hairy beggarticks (Bidens pilosa), were planted into a silt loam soil and treated preemergence with test chemicals formulated in a non-phytotoxic solvent mixture which included a surfactant.
At the same time, plants from these crop and weed species and also horseweed (Canada horseweed, Conyza canadensis), waterhemp_RES1, (ALS & Triazine resistant common waterhemp, Amaranthus rudis), and waterhemp_RES2, (ALS & HPPD resistant common waterhemp, Amaranthus rudis) were planted in pots containing Redi-Earth® planting medium (Scotts Company, 14111 Scottslawn Road, Marysville, Ohio 43041) comprising spaghnum peat moss, vermiculite, wetting agent and starter nutrients were treated with postemergence applications of test chemicals formulated in the same manner. Plants ranged in height from 2 to 18 cm for postemergence treatments (1- to 4-leaf stage). Treated plants and controls were maintained in a greenhouse for 14 to 21 days, after which time all species were compared to controls and visually evaluated. Plant response ratings, summarized in Table E, are based on a scale of 0 to 100 where 0 is no effect and 100 is complete control. A dash (-) response means no test result.

surinam grass = test: Test C postemergence; assay type: in vivo, Brachiaria decumbens; conditions: for Plant response rating (0 to 100), Surinam Grass: postemergence; for Plant response rating, Surinam Grass: Postemergence, scale 0 to 100 (0 no effect, 100 complete control)
Excerpt: (§1) Seeds of plant species selected from blackgrass (Alopecurus myosuroides), Italian ryegrass (Lolium multiflorum), wheat, winter (winter wheat, Triticum aestivum), galium (catchweed bedstraw, Galium aparine), corn (Zea mays), large (Lg) crabgrass (Digitaria sanguinalis), giant foxtail (Setaria faberii), johnsongrass (Sorghum halepense), lambsquarters (Chenopodium album), morningglory (Ipomoea coccinea), yellow nutsedge (Cyperus esculentus), pigweed (Amaranthus retroflexus), ragweed (common ragweed, Ambrosia elatior), soybean (Glycine max), barnyardgrass (Echinochloa crus-galli), oilseed rape (Brassica napus), waterhemp (common waterhemp, Amaranthus rudis), kochia (Kochia scoparia), wild oat (Avena fatua), surinam grass (Brachiaria decumbens), foxtail, green (green foxtail, Setaria viridis), goosegrass (Eleusine indica), bromegrass, downy (downy bromegrass, Bromus tectorum), nightshade (eastern black nightshade, Solanum ptycanthum), cocklebur (common cocklebur, Xanthium strumarium), cupgrass, woolly (woolly cupgrass, Eriochloa villosa), bermudagrass (Cynodon dactylon), sunflower, (common oilseed sunflower, Helianthus annuus), Russian thistle (Salsola kali), and velvetleaf (Abutilon theophrasti) were planted into a blend of loam soil and sand and treated preemergence with test chemicals formulated in a non-phytotoxic solvent mixture which included a surfactant.
(§2) At the same time, plants selected from these crop and weed species and also barley, winter (winter barley, Hordeum vulgare), windgrass (Apera spica-venti), chickweed (common chickweed, Stellaria media), deadnettle (henbit deadnettle, Lamium amplexicaule), and canarygrass (littleseed canarygrass, Phalaris minor) were planted in pots containing Redi-Earth® planting medium (Scotts Company, 14111 Scottslawn Road, Marysville, Ohio 43041) comprising spaghnum peat moss, vermiculite, wetting agent and starter nutrients and treated with postemergence applications of test chemicals formulated in the same manner. Plants ranged in height from 2 to 18 cm (1- to 4-leaf stage) for postemergence treatments. Treated plants and controls were maintained in a greenhouse for 13 to 15 days, after which time all species were compared to controls and visually evaluated. Plant response ratings, summarized in Table C, are based on a scale of 0 to 100 where 0 is no effect and 100 is complete control. A dash (-) response means no test result.

bromegrass, downy = test: Test C postemergence; assay type: in vivo, Bromus tectorum; conditions: for Plant response rating (0 to 100), Bromegrass, Downy: postemergence; for Plant response rating, Bromegrass, Downy: Postemergence, scale 0 to 100 (0 no effect, 100 complete control)
Excerpt: as §1, §2

bermudagrass [1] = test: Test C postemergence; assay type: in vivo, Cynodon dactylon; conditions: for Plant response rating (0 to 100), Bermudagrass: postemergence; for Plant response rating, Bermudagrass: Postemergence, scale 0 to 100 (0 no effect, 100 complete control)
Excerpt: as §1, §2

cocklebur = test: Test C postemergence; assay type: in vivo, Xanthium strumarium; conditions: for Plant response rating (0 to 100), Cocklebur: postemergence; for Plant response rating, Cocklebur: Postemergence, scale 0 to 100 (0 no effect, 100 complete control)
Excerpt: as §1, §2

canarygrass = test: Test C postemergence; assay type: in vivo, Phalaris minor; conditions: for Plant response rating (0 to 100), Canarygrass: postemergence; for Plant response rating, Canarygrass: Postemergence, scale 0 to 100 (0 no effect, 100 complete control)
Excerpt: as §1, §2

windgrass = test: Test C postemergence; assay type: in vivo, Apera spica-venti; conditions: for Plant response rating (0 to 100), Windgrass: postemergence; for Plant response rating, Windgrass: Postemergence, scale 0 to 100 (0 no effect, 100 complete control)
Excerpt: as §1, §2

sunflower = test: Test C preemergence; assay type: in vivo, Helianthus annuus; conditions: for Sunflower plant response rating: preemergence, scale 0 (no effect) to 100 (complete control); for Plant response rating, Sunflower: Preemergence, 31 g ai/ha, scale 0 to 100, 0 no effect, 100 complete control
Excerpt: as §1, §2

[2] = system: waterhemp_RES1 (ALS & Triazine resistant common waterhemp); test: Test E postemergence; assay type: in vivo, Amaranthus rudis
Summary of the method: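 Compound in a non-phytotoxic solvent mixture with surfactant was applied preemergence to seeds in silt loam soil, or postemergence to plants 2 to 18 cm tall grown in peat-based potting medium. Plants were kept in a greenhouse for 14 to 21 days, then rated visually against untreated controls on a 0 (no effect) to 100 (complete control) scale.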

bermudagrass [3] = test: Test C preemergence; assay type: in vivo, Cynodon dactylon; conditions: for Bermudagrass plant response rating: preemergence, scale 0 (no effect) to 100 (complete control); for Plant response rating, Bermudagrass: Preemergence, 31 g ai/ha, scale 0 to 100, 0 no effect, 100 complete control
Excerpt: as §1, §2

wild oat = test: Test C preemergence; assay type: in vivo, Avena fatua; conditions: for Oat, Wild plant response rating: preemergence, scale 0 (no effect) to 100 (complete control); for Plant response rating, Oat, Wild: Preemergence, 31 g ai/ha, scale 0 to 100, 0 no effect, 100 complete control
Excerpt: as §1, §2

[4] = Postemergence, 31 g ai/ha, scale 0 to 100
[5] = Postemergence, 62 g ai/ha, scale 0 to 100
[6] = Postemergence, 125 g ai/ha, scale 0 to 100
[7] = Postemergence, 250 g ai/ha, scale 0 to 100
[8] = postemergence, 16 g ai/ha, scale 0 to 100, 0 no effect, 100 complete control

Fc1cnc(Oc2ccccc2-n2cc(Br)cn2)nc1 [Compound 10, 2-[2-(4-bromo-1H-pyrazol-1-yl)phenoxy]-5-fluoropyrimidine]
pest or weed control at 31 g/ha (palmer pigweed; [4]): 70%
pest or weed control at 62 g/ha (palmer pigweed; [5]): 75%
pest or weed control at 125 g/ha (palmer pigweed; [6]): 85%
pest or weed control at 250 g/ha (palmer pigweed; [7]): 95%
pest or weed control at 16 g/ha (palmer pigweed; [8]): 60%
Plant response rating (0 to 100), Surinam Grass (surinam grass; 125 g ai/ha): 15
Plant response rating (0 to 100), Surinam Grass (surinam grass; 250 g ai/ha): 15
Plant response rating, Surinam Grass (surinam grass; 31 g ai/ha, 13 to 15 days): 0
Plant response rating, Surinam Grass (surinam grass; 62 g ai/ha): 10
Plant response rating (0 to 100), Bromegrass, Downy (bromegrass, downy; 125 g ai/ha): 10
Plant response rating (0 to 100), Bromegrass, Downy (bromegrass, downy; 250 g ai/ha): 15
Plant response rating, Bromegrass, Downy (bromegrass, downy; 31 g ai/ha, 13 to 15 days): 5
Plant response rating, Bromegrass, Downy (bromegrass, downy; 62 g ai/ha): 5
Plant response rating (0 to 100), Bermudagrass (bermudagrass [1]; 125 g ai/ha): 5
Plant response rating (0 to 100), Bermudagrass (bermudagrass [1]; 250 g ai/ha): 50
Plant response rating, Bermudagrass (bermudagrass [1]; 31 g ai/ha, 13 to 15 days): 0
Plant response rating, Bermudagrass (bermudagrass [1]; 62 g ai/ha): 5
Plant response rating (0 to 100), Cocklebur (cocklebur; 125 g ai/ha): 55
Plant response rating (0 to 100), Cocklebur (cocklebur; 250 g ai/ha): 100
Plant response rating, Cocklebur (cocklebur; 31 g ai/ha, 13 to 15 days): 45
Plant response rating, Cocklebur (cocklebur; 62 g ai/ha): 55
Plant response rating (0 to 100), Canarygrass (canarygrass; 125 g ai/ha): 25
Plant response rating (0 to 100), Canarygrass (canarygrass; 250 g ai/ha): 40
Plant response rating, Canarygrass (canarygrass; 31 g ai/ha, 13 to 15 days): 0
Plant response rating, Canarygrass (canarygrass; 62 g ai/ha): 0
Plant response rating (0 to 100), Windgrass (windgrass; 125 g ai/ha): 50
Plant response rating (0 to 100), Windgrass (windgrass; 250 g ai/ha): 65
Plant response rating, Windgrass (windgrass; 31 g ai/ha, 13 to 15 days): 10
Plant response rating, Windgrass (windgrass; 62 g ai/ha): 10

FC(F)(F)c1cnn(-c2ccccc2Oc2ncc(Cl)cn2)c1 [Compound 16]
Sunflower plant response rating (sunflower; 62 g ai/ha): 0
Sunflower plant response rating (sunflower; 125 g ai/ha): 0
Sunflower plant response rating (sunflower; 250 g ai/ha): 0
Plant response rating, Sunflower (sunflower): 0
Plant response rating, Waterhemp_RES1 [2, 4]: 50
Plant response rating, Waterhemp_RES1 [2, 5]: 60
Plant response rating, Waterhemp_RES1 [2, 6]: 75
Plant response rating, Waterhemp_RES1 [2, 7]: 95
Plant response rating, Waterhemp_RES1 [2, 8]: 50
Bermudagrass plant response rating (bermudagrass [3]; 62 g ai/ha): 98
Bermudagrass plant response rating (bermudagrass [3]; 125 g ai/ha): 98
Bermudagrass plant response rating (bermudagrass [3]; 250 g ai/ha): 98
Plant response rating, Bermudagrass (bermudagrass [3]): 95
Oat, Wild plant response rating (wild oat; 62 g ai/ha): 90
Oat, Wild plant response rating (wild oat; 125 g ai/ha): 90
Oat, Wild plant response rating (wild oat; 250 g ai/ha): 90
Plant response rating, Oat, Wild (wild oat): 50
Plant response rating (0 to 100), Surinam Grass (surinam grass; 125 g ai/ha): 40
Plant response rating (0 to 100), Surinam Grass (surinam grass; 250 g ai/ha): 40
Plant response rating, Surinam Grass (surinam grass; 31 g ai/ha, 13 to 15 days): 10
Plant response rating, Surinam Grass (surinam grass; 62 g ai/ha): 15
Plant response rating (0 to 100), Bromegrass, Downy (bromegrass, downy; 125 g ai/ha): 5
Plant response rating (0 to 100), Bromegrass, Downy (bromegrass, downy; 250 g ai/ha): 5
Plant response rating, Bromegrass, Downy (bromegrass, downy; 31 g ai/ha, 13 to 15 days): 0
Plant response rating, Bromegrass, Downy (bromegrass, downy; 62 g ai/ha): 5
Plant response rating (0 to 100), Bermudagrass (bermudagrass [1]; 125 g ai/ha): 50
Plant response rating (0 to 100), Bermudagrass (bermudagrass [1]; 250 g ai/ha): 55
Plant response rating, Bermudagrass (bermudagrass [1]; 31 g ai/ha, 13 to 15 days): 10
Plant response rating, Bermudagrass (bermudagrass [1]; 62 g ai/ha): 15
Plant response rating (0 to 100), Cocklebur (cocklebur; 250 g ai/ha): 80
Plant response rating, Cocklebur (cocklebur; 31 g ai/ha, 13 to 15 days): 50
Plant response rating, Cocklebur (cocklebur; 62 g ai/ha): 55
Plant response rating (0 to 100), Canarygrass (canarygrass; 125 g ai/ha): 60
Plant response rating (0 to 100), Canarygrass (canarygrass; 250 g ai/ha): 80
Plant response rating, Canarygrass (canarygrass; 31 g ai/ha, 13 to 15 days): 10
Plant response rating, Canarygrass (canarygrass; 62 g ai/ha): 30
Plant response rating (0 to 100), Windgrass (windgrass; 125 g ai/ha): 50
Plant response rating (0 to 100), Windgrass (windgrass; 250 g ai/ha): 50
Plant response rating, Windgrass (windgrass; 31 g ai/ha, 13 to 15 days): 30
Plant response rating, Windgrass (windgrass; 62 g ai/ha): 40

FC(F)(F)c1cnn(-c2ccccc2Oc2ncc(Br)cn2)c1 [Compound 18, 5-bromo-2-[2-[4-(trifluoromethyl)-1H-pyrazol-1-yl]phenoxy]pyrimidine]
Sunflower plant response rating (sunflower; 62 g ai/ha): 0
Sunflower plant response rating (sunflower; 125 g ai/ha): 0
Sunflower plant response rating (sunflower; 250 g ai/ha): 40
Plant response rating, Sunflower (sunflower): 0
Bermudagrass plant response rating (bermudagrass [3]; 62 g ai/ha): 98
Bermudagrass plant response rating (bermudagrass [3]; 125 g ai/ha): 98
Bermudagrass plant response rating (bermudagrass [3]; 250 g ai/ha): 100
Plant response rating, Bermudagrass (bermudagrass [3]): 95
Oat, Wild plant response rating (wild oat; 62 g ai/ha): 50
Oat, Wild plant response rating (wild oat; 125 g ai/ha): 80
Oat, Wild plant response rating (wild oat; 250 g ai/ha): 85
Plant response rating, Oat, Wild (wild oat): 0
